Consider two compounds from article PMC4226252, “Biochemical interaction of anti-HCV telaprevir with the ABC transporters P-glycoprotein and breast cancer resistance protein” (BMC Research Notes, 2013).

For series [1], the target named is T1, P-gp (Homo sapiens, UniProt P08183). On the set-up: expressed in transfected cells; host or cells: K562/MDR cells (plasma membrane vesicles); method as in PMID 23293300, PMID 22331658. The following applies: cellular system; cited from earlier work.
The target in series [2] is T2, BCRP (Homo sapiens, UniProt Q9UNQ0).
T2 sequence (Q9UNQ0 1-655): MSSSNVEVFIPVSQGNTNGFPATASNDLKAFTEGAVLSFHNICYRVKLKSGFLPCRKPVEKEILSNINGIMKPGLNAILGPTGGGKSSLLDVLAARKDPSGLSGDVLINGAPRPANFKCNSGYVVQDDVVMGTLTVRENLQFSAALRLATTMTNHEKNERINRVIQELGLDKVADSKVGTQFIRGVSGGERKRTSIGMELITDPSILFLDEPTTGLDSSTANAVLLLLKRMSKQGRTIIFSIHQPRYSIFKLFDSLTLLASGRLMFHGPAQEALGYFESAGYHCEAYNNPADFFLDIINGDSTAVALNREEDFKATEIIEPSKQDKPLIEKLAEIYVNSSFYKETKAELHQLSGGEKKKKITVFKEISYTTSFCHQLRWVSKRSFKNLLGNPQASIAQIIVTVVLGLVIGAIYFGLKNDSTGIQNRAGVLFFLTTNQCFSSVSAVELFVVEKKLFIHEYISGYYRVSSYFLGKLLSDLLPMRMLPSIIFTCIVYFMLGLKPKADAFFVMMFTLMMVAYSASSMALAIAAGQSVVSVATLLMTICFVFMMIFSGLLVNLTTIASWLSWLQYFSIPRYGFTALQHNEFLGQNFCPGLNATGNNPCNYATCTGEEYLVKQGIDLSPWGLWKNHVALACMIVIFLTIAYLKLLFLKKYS
On the set-up: expressed in transfected cells; host or cells: K562/BCRP cells (plasma membrane vesicles); method as in PMID 23293300, PMID 22331658. As to conditions: cellular system; cited from earlier work.

For series [3], the target named is T1, P-gp.
Protocol: (§3) Then, they were mixed with [^3H]-labeled VCR (for P-gp) or E1S or MTX (for BCRP), and telaprevir at the indicated concentration in the reaction buffer (0.25 mol/L sucrose, 10 mmol/L HEPES-NaOH (pH 7.4), 10 mmol/L MgCl2, 10 mmol/L phosphocreatine, 100 μg/mL creatine phosphokinase, with or without 3 mmol/L adenosine triphosphate (ATP)) in a total volume of 50 μL. After 10 min of incubation at 25°C, the reaction mixture was stopped by the addition of ice-cold stop solution (0.25 mol/L sucrose, 10 mmol/L HEPES-NaOH (pH 7.4), 0.1 mol/L NaCl) and centrifuged at 18,000 × g for 10 min at 4°C. The pellets were solubilized by a liquid scintillation counter to measure their radioactivity levels. For kinetics analyses, the Michaelis–Menten equation and Lineweaver–Burk plots were applied to visualize the mechanism of transport inhibition, as v = Vmax[S]/([S] + (1 + [I]/Ki)Km), where [S] and [I] are concentrations of substrate and inhibitor respectively, and v is velocity of substrate uptake by transporter.
(§4) Figure 1 Effect of telaprevir on the intravesicular transport of vincristine sulfate (VCR) by P-gp. A. The ability to transport VCR in telaprevir-absent or -present conditions was determined by measuring the radioactivity taken up in membrane vesicles. B. Analyses of Lineweaver–Burk plots of inhibition of VCR uptake by P-gp. The VCR concentration was 100 nmol/L (A) and 50, 100, and 200 nmol/L (B), and of telaprevir was 0, 1, 10, and 100 μmol/L (A) and 20 μmol/L (B), respectively. Membrane vesicles from K562/MDR cells were mixed with each concentration of VCR, telaprevir, and 3 mmol/L of ATP in the incubation medium as described in the Methods section. VCR uptake is shown for parental K562 (white column for ATP-absent; gray column for ATP-present) and K562⁄MDR (dark-gray column for ATP-absent; black column for ATP-present) (A) and the inverse is shown for no inhibitor (open rhombus) and with telaprevir (black circle) (B). Results are means ± SD of triplicate (A) or quadruplicate (B) determinations.
Series [4] concerns the target T2, BCRP.
Protocol: as §3
(§5) A. The ability to transport E1S at telaprevir-absent or -present conditions was determined by measuring the radioactivity of [^3H]-E1S taken up in membrane vesicles. A similar experiment was done for MTX. […] E1S concentration was 50 nmol/L (A) and 50, 100, and 200 nmol/L (B), and of telaprevir was 0, 1, 10, and 100 μmol/L (A) and 50 μmol/L (B), respectively. MTX concentration was 100 nmol/L (A), and 100, 200 and 400 nmol/L (B). Membrane vesicles of K562/BCRP cells were used.
The subject of series [5] is OCT2. As to conditions: cited from earlier work.
Series [6] relates to MATE1. As to conditions: cited from earlier work.
The subject of series [7] is OATP1B1. The following applies: cited from earlier work.
Series [8] deals with OATP1B. As to conditions: cited from earlier work.
In series [9] the test system is OCT1. The following applies: cited from earlier work.
The target in series [10] is T1, P-gp. In words: biochemical.
Protocol: as §3, §4
Series [11] addresses T2, BCRP. In words: biochemical. The following applies: for IC50: IC50 of telaprevir on BCRP-mediated transport; for Ki: Lineweaver-Burk plot, 50 μmol/L telaprevir.
Protocol: as §3, §5
Series [12] has as its target T1, P-gp. In words: Photoaffinity labeling of P-gp with [125I]-IAAP. Format: binding. Further details: expressed in transfected cells; host or cells: K562/MDR cells (plasma membrane vesicles). The following applies: for P-gp band intensity (% of no-inhibitor): human, 10 min, pH 7.4. As for the experimental part: (§1) Photoaffinity labeling assay was done as described previously. In brief, plasma membrane fractions (45 μg protein/sample) were pre-incubated at 4°C for 5 min at the indicated concentration of telaprevir in 0.25 mol/L sucrose solution containing 10 mmol/L HEPES-NaOH (pH 7.4). Then, 5 nmol/L radioactive iodine-labeled IAAP, i.e., [^125I]-IAAP (2200 Ci/mmol), was added and the mixture incubated for an additional 10 min. Samples were kept on ice and illuminated with an ultraviolet lamp (B-100AP; UVP, Upland, CA, USA) at 365 nm for 30 min. These processes were carried out on ice. For the BCRP assay, the labeled BCRP protein was solubilized in a buffer (1% NP-40, 20 mmol/L Tris–HCl (pH 7.4), 150 mmol/L NaCl, 1 mmol/L ethylenediamine tetra-acetic acid (EDTA)) and immunoprecipitated with anti-BCRP antibody BXP-21 (Millipore, Billerica, MA, USA), then solubilized by Laemmli sodium dodecyl sulfate (SDS) buffer. For the P-gp assay, membrane fractions were solubilized directly by Laemmli SDS buffer. Samples were separated by sodium dodecyl sulfate-polyacrylamide gel electrophoresis (SDS-PAGE), and gels were dried. The binding of [^125I]-IAAP with P-gp and BCRP was quantified using a FLA7000 Bioimage Analyzer (Fuji Film, Tokyo, Japan) and Multi-Gauge software (Fuji Film).
(§2) Figure 3 Effect of telaprevir on photoaffinity labeling of P-gp and BCRP with [^125I]-IAAP. K562/MDR- or K562/BCRP-vesicles were mixed with the indicated concentrations of telaprevir for 5 min. Vesicles were pre-incubated with 5 nmol/L [^125I]-IAAP (2200 Ci/mmol) for 10 min, and then illuminated with a UV lamp (365 nm) for 30 min. IAAP-labeled protein was solubilized by Laemmli SDS buffer directly (for the P-gp assay) or after immunoprecipitation (for the BCRP assay), and subjected to SDS-PAGE. Signals were visualized and analyzed with a FLA7000 system. The black arrowheads are P-gp or BCRP. […] The binding of [^125I]-IAAP with P-gp and BCRP was calculated from standard curve analysis using a FLA7000 Bioimage Analyzer (Fuji Film, Tokyo, Japan) and Multi-Gauge software (Fuji Film).

Series [13] addresses T2, BCRP. Description: Photoaffinity labeling of BCRP with [125I]-IAAP. The following applies: for BCRP band intensity (% of no-inhibitor): human, 10 min, pH 7.4. On the set-up: expressed in transfected cells; host or cells: K562/BCRP cells (plasma membrane vesicles). Format: binding. As for the experimental part:
as §1
as §2, with “Film). […] I copied these numbers as results for the inhibitors, although gels and blots are otherwise left out. / The value 0 under the 'K562 vesicle' control lane in panels A and B is left out because it belongs to no substance.” for “Film).”

Values joined by “and” are separate entries in the source; they are usually repeats but may differ in a detail not shown here. Equal entries are not always repeated. Where two headings read alike, the source gives them in different places. Some results are limits rather than exact numbers.

T1 sequence (P08183 whole entry): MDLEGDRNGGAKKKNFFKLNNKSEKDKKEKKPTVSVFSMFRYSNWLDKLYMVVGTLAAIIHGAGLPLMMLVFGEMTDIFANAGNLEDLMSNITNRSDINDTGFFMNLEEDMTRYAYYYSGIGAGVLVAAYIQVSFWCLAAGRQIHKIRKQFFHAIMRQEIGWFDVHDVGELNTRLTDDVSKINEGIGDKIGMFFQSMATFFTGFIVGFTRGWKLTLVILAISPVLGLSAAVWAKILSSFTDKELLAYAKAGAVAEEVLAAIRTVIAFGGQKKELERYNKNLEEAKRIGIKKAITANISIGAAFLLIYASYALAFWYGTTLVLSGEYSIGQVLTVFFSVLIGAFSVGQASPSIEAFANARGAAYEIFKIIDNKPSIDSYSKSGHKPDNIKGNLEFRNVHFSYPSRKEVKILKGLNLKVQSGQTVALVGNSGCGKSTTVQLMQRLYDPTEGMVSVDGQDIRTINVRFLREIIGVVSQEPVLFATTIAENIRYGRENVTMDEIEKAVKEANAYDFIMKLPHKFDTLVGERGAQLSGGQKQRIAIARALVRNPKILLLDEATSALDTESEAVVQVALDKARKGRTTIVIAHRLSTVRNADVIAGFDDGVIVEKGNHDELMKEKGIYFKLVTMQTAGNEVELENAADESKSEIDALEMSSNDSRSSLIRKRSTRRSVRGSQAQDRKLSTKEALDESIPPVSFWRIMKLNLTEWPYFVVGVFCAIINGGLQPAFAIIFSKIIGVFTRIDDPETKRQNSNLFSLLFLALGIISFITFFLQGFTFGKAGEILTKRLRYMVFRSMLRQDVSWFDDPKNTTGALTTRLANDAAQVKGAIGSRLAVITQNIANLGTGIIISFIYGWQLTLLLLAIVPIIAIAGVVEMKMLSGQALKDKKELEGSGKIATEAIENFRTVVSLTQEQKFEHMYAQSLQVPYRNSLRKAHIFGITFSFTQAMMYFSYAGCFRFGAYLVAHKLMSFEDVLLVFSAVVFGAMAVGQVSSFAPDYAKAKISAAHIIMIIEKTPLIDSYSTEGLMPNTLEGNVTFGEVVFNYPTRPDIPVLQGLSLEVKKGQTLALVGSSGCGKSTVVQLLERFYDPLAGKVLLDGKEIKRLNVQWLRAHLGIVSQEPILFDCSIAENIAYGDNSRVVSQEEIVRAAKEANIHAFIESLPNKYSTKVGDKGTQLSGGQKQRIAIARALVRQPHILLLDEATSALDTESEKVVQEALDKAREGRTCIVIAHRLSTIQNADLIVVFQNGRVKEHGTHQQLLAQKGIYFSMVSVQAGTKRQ

By IC50 is commonly meant the concentration needed to halve the response being measured. For `CC(C)(C)NC(=O)N[C@H](C(=O)N1C[C@H]2[C@@H]([C@H]1C(=O)NC(CC1CCC1)C(=O)C(N)=O)C2(C)C)C(C)(C)C` (stereo partly drawn) [boceprevir], the “Inhibitory effect on P-gp” value in series [1] was “very low”. For the same compound, the IC50 in series [2] is about 80 µM.
Broadly, the Ki is a measure of affinity in units of concentration, obtained from inhibition or displacement. As to `CCC[C@H](NC(=O)[C@@H]1[C@H]2CCC[C@H]2CN1C(=O)[C@@H](NC(=O)[C@@H](NC(=O)c1cnccn1)C1CCCCC1)C(C)(C)C)C(=O)C(=O)NC1CC1` [telaprevir], the Inhibitory mode entry in [3] and in [4] was “competitive” in each case. In series [3] (human, 10 min, 20 μmol/L, pH 7.4), the Vmax is 7.1 pmol/mg/10 min. The IC50 was 6.4 µM in series [5]; 23 µM in series [6]; 2.2 µM in series [7]; 36.8 µM in series [8]; 20.7 µM in series [9]; ~7 µM and 7 µM in series [10] (IC50 of telaprevir on P-gp-mediated transport, substrate VCR, K562/MDR vesicles). Further, the IC50 in series [11] (substrate E1S, K562/BCRP vesicles) is 30 µM; in series [11] (substrate MTX, K562/BCRP vesicles) it was 31 µM; in series [11] (substrate not specified), about 30 µM; in series [12] (IC50 on [125I]-IAAP binding with P-gp, K562/MDR vesicles, 5 nmol/L [125I]-IAAP), 16.5 µM; in series [13], over 80 µM. Moreover, the Ki in [10] is 4.8 µM; in series [11] (BCRP-mediated E1S transport), 44 µM and 44.4 µM; in series [11] (BCRP-mediated MTX transport) it was 94.8 µM. Further, the “P-gp band intensity (% of no-inhibitor)” value is 85 % of no-inhibitor in series [12] (2.5 μmol/L); 71 % of no-inhibitor in series [12] (5 μmol/L); 64 % of no-inhibitor in series [12] (10 μmol/L); 47 % of no-inhibitor in series [12] (20 μmol/L); 30 % of no-inhibitor in [12] (40 μmol/L). For the same compound, the entries for the “BCRP band intensity (% of no-inhibitor)” value in series [13] (5 μmol/L), in series [13] (20 μmol/L) and in [13] (80 μmol/L) were 95 % of no-inhibitor, 72 % of no-inhibitor and 58 % of no-inhibitor, respectively.
